Results on 65 compounds are retold here after a melting point compilation (Tetko et al.; mined from patent text by program, amines drawn as free bases though some values may be those of a salt).

Compound `O=C(Nc1ccccc1O)c1ccc(CS(=O)(=O)c2ccc(O)cc2)cc1` yielded a melting point of 250 °C.

In turn, `CCC1OC(=O)C(C)C(OC2CC(C)(OC)C(O)C(C)O2)C(C)C(OC2OC(C)CC(N(C)C)C2O)C(C)(OC)CC(C)C(=O)C(C)C(O)C1(C)O` (stereo not given) returned a melting point of 100 °C.

`Cc1ccc(N)c(C(=O)c2ccc(F)cc2)c1` yielded a melting point of 70 to 71.5 °C.

Compound `CN(C)CC1Cc2c(n(C)c3ccc(O)cc23)C1` (stereo not given) registered a melting point of 110 °C.

The compound `CCOC(=O)Cc1nsc(Nc2ccc(F)c(F)c2)n1` registered a melting point of 84 to 90 °C.

`Nc1nc(N)c(CCCc2cccc3ccccc23)c(N)n1` displayed a melting point of 181 to 183 °C.

`COc1cc2ccccc2[nH]c1=O` gave a melting point of 188 to 189 °C.

`Nc1c([N+](=O)[O-])ccc(Oc2cccc(Cl)c2)c1Cl` gave a melting point of 101 to 102 °C.

In turn, `CCc1nnc(NS(=O)(=O)c2ccc(NC(C)=O)cc2)s1` showed a melting point of 197 to 198 °C.

As for `Nc1nccc(N2CCc3ccccc32)n1`, the melting point was 177 to 179 °C.

Regarding `CCC(Oc1ccccc1C#N)C(=O)OC1CC(O)C=C2C=CC(C)C(CCC3CC(O)CC(=O)O3)C21` (mixture of isomers), the melting point fell in the range of 95 to 97 °C.

On to `CC(C)[C@H](NC1CCCCC1)C(=O)NCCCC(c1ccc(F)cc1)c1ccc(F)cc1`, for which the melting point is 49 to 53 °C.

As to `O=C(NC1CCCc2ccccc21)c1ccc2n1Cc1ccccc1N(C(=O)CSc1ccc(Br)cc1)C2` (stereo not given), the melting point fell in the range of 163 to 165 °C.

Take `OC1CCCc2nc3ccccc3c(NCc3cccc(C(F)(F)F)c3)c21` (stereo not given): the melting point fell in the range of 154 to 155 °C.

Regarding `COC(=O)C1=C(c2ccccc2)NC(C)=C(C(=O)OC(C)C)C1c1cccc([N+](=O)[O-])c1` (stereo not given), the melting point was 184 to 186 °C.

The compound `CN(C)S(=O)(=O)c1ccc2c(c1)CCC2=O` registered a melting point of 142 °C.

With `Cc1ccc(N2CCC3CCc4cnccc4C3=N2)cc1` (stereo not given), the melting point was in the range of 158 to 159 °C.

Consider `CC(=O)CN(c1ccc(Cl)cc1)S(C)(=O)=O`, for which the melting point amounted to 108 °C.

As to `OC1CSC(Oc2cccc(-c3cccnc3Cl)c2)C(O)C1O` (stereo not given), the melting point is 130 °C.

`Brc1cn2c(Br)cnc2c(N2CCCCC2)n1` gave a melting point of 72 °C.

Consider `COc1cc2c3c(ccc([N+](=O)[O-])c3c1[N+](=O)[O-])C(=O)N(O)C2=O`, for which the melting point lay in the range of 272 to 273 °C.

`O=C1C=CC(O)(c2cc3ccccc3o2)c2ccccc21` (stereo not given) returned a melting point of 105 to 107 °C.

The compound `CN(C)C=NS(=O)(=O)c1nc2ccc(O)cc2s1` came in with a melting point of 195 to 198 °C.

On to `CC(C)CN1CCCC[C@H]1CNc1nc(Oc2cccc3[nH]c(=O)c(N)nc23)cc(-c2ccc(C(F)(F)F)cc2)n1`, for which the melting point is 228 °C.

`COc1ccc(/C=C/C(=O)c2ccc(C(=O)O)cc2)cc1-c1cccs1` returned a melting point of 219 to 220 °C.

Compound `CC(C)c1ccc2nc3ccc(C(=O)NCCCCn4ccnc4)cn3c(=O)c2c1` showed a melting point of 165 to 167 °C.

Take `C=CCc1c(OCCCOc2ccc3c(c2)OC(C(=O)O)CC3)ccc(C(C)=O)c1OC` (stereo not given): the melting point is 85.5 °C.

As to `COc1ncc(OC)c(NC#N)n1`, the melting point was 164 to 171 °C.

In turn, `CCOC(=O)NNC(=O)NCCCC(=O)OC` showed a melting point of 95 to 96 °C.

As for `N#Cc1ccc(-c2ccc3nncn3n2)cc1`, the melting point was 272 to 274 °C.

Compound `O=C1NC(=Cc2c[nH]c3ccccc23)C(=O)N1Cc1cc(C(F)(F)F)cc(C(F)(F)F)c1` returned a melting point of 151 to 153 °C.

Take `C[C@H]1[C@@H](O)CC(=O)N1c1ccc(C#N)c(Cl)c1`: the melting point fell in the range of 161 to 162 °C.

Consider `COC(=O)c1ccc(NC(C)=O)c(NC(=O)COC(C)=O)c1`, for which the melting point lay within 182 to 186 °C.

With `Clc1ccc(-c2ccc(C3=NC[C@H](c4ccccc4)O3)cc2)cc1`, the melting point amounted to 122 °C.

Compound `CC(C)c1cccc2c1O[C@@H](C(C)C)C(=O)N2` returned a melting point of 151 to 152 °C.

`Cc1ccc(S(=O)(=O)OCCC2CCc3ccccc3O2)cc1` (stereo not given) came in with a melting point of 57 to 59 °C.

Turning to `COCCOc1ccc(C2=NCCNC2=O)cc1`, the melting point is 130 to 132 °C.

`Cc1nc(-c2cccnc2)sc1-c1ccnc(Nc2ccc(N3CCSCC3)cc2)n1` came in with a melting point of 191 to 193 °C.

`NNC(=O)Cc1cccc(Cl)n1` came in with a melting point of 220 to 225 °C.

As to `C=COC(=O)N1C[C@@H]2C(=O)CCC(c3ccccc3)(c3ccccc3)[C@@H]2C1` (racemic), the melting point was 178 °C.

In the case of `Cc1ccc2c(c1)N=C(NCc1cccnc1)c1ccccc1N2`, the melting point fell in the range of 186 to 187 °C.

For `O=C(O)C(O)(C(F)F)C(F)F`, the melting point lay in the range of 72.5 to 73.5 °C.

For `Nc1ccc(-c2ccc(C(=O)NC3CN4CCC3CC4)o2)cc1` (stereo not given), the melting point fell in the range of 103 to 113 °C.

`CCOC(=O)c1cn(-c2nccnn2)cn1` came in with a melting point of 193 to 194 °C.

In the case of `Cn1c(=O)n(CC2(C)Cn3cc([N+](=O)[O-])nc3O2)c2ccccc21` (stereo not given), the melting point lay within 203 to 204 °C.

Consider `COc1cccc(C=C2CCc3c2nc2ccc(C(=O)O)cn2c3=O)c1`, for which the melting point lay within 310 to 312 °C.

For the compound `CNC(=O)Nc1ccc(C2=NN(C(=O)NC)C(C)Cc3cc4c(cc32)OCO4)cc1` (stereo not given), the melting point was in the range of 181 to 183 °C.

`O=C(O)Cc1c(C(=O)c2ccc(Cl)cc2)[nH]c2ccc(Cl)cc12` came in with a melting point of 220 to 224 °C.

Consider `NC(=O)c1ccccc1NC(=O)c1ccc(-n2nc(C(F)(F)F)cc2C(F)(F)F)cc1`, for which the melting point lay in the range of 195 to 196 °C.

For the compound `CC(C)(C)c1cc(Cn2nc(C=Cc3nn(Cc4cc(C(C)(C)C)c(O)c(C(C)(C)C)c4)c(=O)o3)oc2=O)cc(C(C)(C)C)c1O`, the melting point worked out at 263 °C.

On to `CCOC(=O)c1sc(C)nc1S`, for which the melting point fell in the range of 62 to 66 °C.

The compound `COC(=O)C1CSCC1=O` (stereo not given) showed a melting point of 51 °C.

For the compound `NCc1nc2ccccc2o1`, the melting point fell in the range of 46.5 to 47.5 °C.

In turn, `CCCCCCC(C)(C)c1ccc(C2CC(=O)CC(=O)C2)c(OCc2ccccc2)c1` came in with a melting point of 102 to 103 °C.

`CNC(=O)Nc1ccc2[nH]cc(C3CCN(C)CC3)c2n1` showed a melting point of 229 to 230 °C.

`Fc1cc2c(cc1F)CC(n1c(-c3nnn[nH]3)c[nH]c1=S)CC2` (stereo not given): the melting point fell in the range of 195 to 212 °C.

As to `CC(C)C(NC(=O)OC(C)(C)C)C(=O)NC(C(=O)OC1CC(n2cc(C=CBr)c(=O)[nH]c2=O)OC1CCl)C(C)C` (stereo not given), the melting point lay within 114 to 116 °C.

Compound `CCc1[nH]n(C2CCCC2)c2nc(Cc3ccc([N+](=O)[O-])cc3)nc(=O)c1-2` yielded a melting point of 221 to 223 °C.

Turning to `CCCCCCc1c(C(C)C)nc(C(C)C)c(C(C)O)c1-c1ccc(F)cc1` (stereo not given), the melting point lay in the range of 75 to 77 °C.

Consider `CON=C(C(C)=O)C(=O)OC`, for which the melting point came to 64.4 °C.

The compound `COc1ccc(-c2sc(-c3ccc(OC)s3)c3c2OCCO3)s1` displayed a melting point of 101 °C.

With `C=C(C)c1cn(-c2c(Cl)cc(C(F)(F)F)cc2Cl)nc1C#N`, the melting point lay in the range of 63 to 64 °C.

For the compound `CCC12CCC3=C(CC(C)c4cc(OC)ccc43)C1CCC21OCCO1` (stereo not given), the melting point is 122 to 124 °C.

Take `COc1c2c(nn1-c1ccc(Cl)cc1F)CCCC2`: the melting point lay in the range of 100 to 102 °C.

In turn, `CNc1nc(S(=O)(=O)Nc2c(Cl)cccc2Cl)n[nH]1` showed a melting point of 285 to 287 °C.

The melting point is the temperature, or range, at which the solid turns liquid.
